Test results from ChEMBL document CHEMBL3351763, “Design and synthesis of novel small molecule CCR2 antagonists: evaluation of 4-aminopiperidine derivatives” (Bioorg Med Chem Lett, 2014).

Columns and labels:
[1] = target: T1, C-C chemokine receptor type 2 (Homo sapiens, UniProt P41597); assay: Displacement of [125I]CCL2 from CCR2 in human U2OS cell membranes at 1 uM by radioligand displacement assay
Target sequence in this assay (P41597 whole entry, looked up): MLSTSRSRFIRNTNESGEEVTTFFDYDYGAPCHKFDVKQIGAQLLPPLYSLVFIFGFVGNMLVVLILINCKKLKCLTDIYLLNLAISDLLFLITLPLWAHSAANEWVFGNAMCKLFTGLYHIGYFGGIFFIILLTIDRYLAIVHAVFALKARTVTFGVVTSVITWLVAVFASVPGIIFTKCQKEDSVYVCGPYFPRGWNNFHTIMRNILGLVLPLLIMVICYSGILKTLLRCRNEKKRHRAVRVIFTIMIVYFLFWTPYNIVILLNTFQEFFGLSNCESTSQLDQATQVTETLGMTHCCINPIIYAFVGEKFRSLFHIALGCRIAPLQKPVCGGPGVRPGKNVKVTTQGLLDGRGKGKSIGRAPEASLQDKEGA

[2] = target: T1, C-C chemokine receptor type 2; assay: Displacement of [125I]CCL2 from CCR2 in human U2OS cell membranes by radioligand displacement assay
Target sequence in this assay (P41597 whole entry): as the sequence (P41597 whole entry, looked up) above

Row | inhibition [1] | Ki [2] | SMILES
1 | 12% |  | O=C(CNC(=O)c1cccc(C(F)(F)F)c1)NC1CCN(Cc2cn(-c3ccccc3)nn2)CC1
2 | 10% |  | O=C(CNC(=O)c1cccc(C(F)(F)F)c1)NC1CCN(C2CCCC(c3ccccc3)C2)CC1 (stereo not given)
3 |  | 74 nM | O=C(CNC(=O)c1cccc(C(F)(F)F)c1)NC1CCN(C2CCC(c3ccccc3)CC2)CC1 (stereo not given)
4 | 24% |  | O=C(CNC(=O)c1cccc(C(F)(F)F)c1)NC1CCN(C2CCc3ccccc3C2)CC1 (stereo not given)
5 | 6% |  | O=C(CNC(=O)c1cccc(C(F)(F)F)c1)NC1CCN(CCCc2ccccc2)CC1
6 | 26% |  | Cc1ccccc1C1CCC(N2CCC(NC(=O)CNC(=O)c3cccc(C(F)(F)F)c3)CC2)CC1 (stereo not given)
7 | 0% |  | O=C(CNC(=O)c1cccc(C(F)(F)F)c1)NC1CCN(Cc2ccc(Cl)cc2)CC1
8 | 31% |  | O=C(NCC(=O)N1CCC(NC2CCC(c3ccccc3)CC2)CC1)c1cccc(C(F)(F)F)c1 (stereo not given)
9 |  | 270 nM | Cc1cccc(C2CCC(N3CCC(NC(=O)CNC(=O)c4cccc(C(F)(F)F)c4)CC3)CC2)c1 (stereo not given)
10 |  | 90 nM | O=C(CNC(=O)c1cccc(C(F)(F)F)c1)NC1CCN(C2CCC(c3ccc4c(c3)OCO4)CC2)CC1 (stereo not given)
11 |  | 139 nM | O=C(CNC(=O)c1cccc(C(F)(F)F)c1)NC1CCN(C2CCC(c3ccc(O)cc3)CC2)CC1 (stereo not given)
12 | 38% |  | Cc1ccc(C2CCC(N3CCC(NC(=O)CNC(=O)c4cccc(C(F)(F)F)c4)CC3)CC2)cc1 (stereo not given)
13 | 42% |  | COc1cccc(OC)c1C1CCC(N2CCC(NC(=O)CNC(=O)c3cccc(C(F)(F)F)c3)CC2)CC1 (stereo not given)
14 |  | 66 nM | COc1cccc(C2CCC(N3CCC(NC(=O)CNC(=O)c4cccc(C(F)(F)F)c4)CC3)CC2)c1 (stereo not given)
15 | 41% |  | COc1cc(OC)cc(C2CCC(N3CCC(NC(=O)CNC(=O)c4cccc(C(F)(F)F)c4)CC3)CC2)c1 (stereo not given)
